Data set [1] in a line: intracellular Trypanosoma cruzi inhibitors in host cells – cell-based, plate reader, cherry-pick samples, set 3, dose response (AID 651818).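 Note: compounds incubated with infected cells for about four days.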 The data set is classed as functional.
In data set [2] the target is T1, High affinity choline transporter 1 (Homo sapiens, UniProt Q9GZV3).
T1 sequence (Q9GZV3 whole entry): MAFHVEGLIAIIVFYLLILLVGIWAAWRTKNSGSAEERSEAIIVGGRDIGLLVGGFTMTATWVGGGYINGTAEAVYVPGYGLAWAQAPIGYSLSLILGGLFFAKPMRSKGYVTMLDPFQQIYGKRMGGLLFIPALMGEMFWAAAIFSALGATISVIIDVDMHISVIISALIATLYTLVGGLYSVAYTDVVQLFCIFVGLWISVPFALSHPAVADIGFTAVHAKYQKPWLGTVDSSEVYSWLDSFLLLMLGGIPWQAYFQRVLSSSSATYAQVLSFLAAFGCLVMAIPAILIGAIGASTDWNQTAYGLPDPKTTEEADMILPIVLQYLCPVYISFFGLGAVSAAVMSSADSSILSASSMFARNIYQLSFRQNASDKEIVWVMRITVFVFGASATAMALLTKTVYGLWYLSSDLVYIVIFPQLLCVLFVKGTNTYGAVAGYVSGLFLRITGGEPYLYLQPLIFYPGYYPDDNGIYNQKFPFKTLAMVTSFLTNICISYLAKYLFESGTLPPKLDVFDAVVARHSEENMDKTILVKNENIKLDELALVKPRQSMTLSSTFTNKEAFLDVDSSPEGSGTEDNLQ
The experiment in a line: CHT inhibitors, dose response, cell-based, 5-point CRC, membrane potential dye (AID 504840). The data set is classed as functional.

The target of a further data set is T2, Aminopeptidase N (Plasmodium falciparum FcB1/Columbia, UniProt O96935).
T2 sequence (O96935 whole entry): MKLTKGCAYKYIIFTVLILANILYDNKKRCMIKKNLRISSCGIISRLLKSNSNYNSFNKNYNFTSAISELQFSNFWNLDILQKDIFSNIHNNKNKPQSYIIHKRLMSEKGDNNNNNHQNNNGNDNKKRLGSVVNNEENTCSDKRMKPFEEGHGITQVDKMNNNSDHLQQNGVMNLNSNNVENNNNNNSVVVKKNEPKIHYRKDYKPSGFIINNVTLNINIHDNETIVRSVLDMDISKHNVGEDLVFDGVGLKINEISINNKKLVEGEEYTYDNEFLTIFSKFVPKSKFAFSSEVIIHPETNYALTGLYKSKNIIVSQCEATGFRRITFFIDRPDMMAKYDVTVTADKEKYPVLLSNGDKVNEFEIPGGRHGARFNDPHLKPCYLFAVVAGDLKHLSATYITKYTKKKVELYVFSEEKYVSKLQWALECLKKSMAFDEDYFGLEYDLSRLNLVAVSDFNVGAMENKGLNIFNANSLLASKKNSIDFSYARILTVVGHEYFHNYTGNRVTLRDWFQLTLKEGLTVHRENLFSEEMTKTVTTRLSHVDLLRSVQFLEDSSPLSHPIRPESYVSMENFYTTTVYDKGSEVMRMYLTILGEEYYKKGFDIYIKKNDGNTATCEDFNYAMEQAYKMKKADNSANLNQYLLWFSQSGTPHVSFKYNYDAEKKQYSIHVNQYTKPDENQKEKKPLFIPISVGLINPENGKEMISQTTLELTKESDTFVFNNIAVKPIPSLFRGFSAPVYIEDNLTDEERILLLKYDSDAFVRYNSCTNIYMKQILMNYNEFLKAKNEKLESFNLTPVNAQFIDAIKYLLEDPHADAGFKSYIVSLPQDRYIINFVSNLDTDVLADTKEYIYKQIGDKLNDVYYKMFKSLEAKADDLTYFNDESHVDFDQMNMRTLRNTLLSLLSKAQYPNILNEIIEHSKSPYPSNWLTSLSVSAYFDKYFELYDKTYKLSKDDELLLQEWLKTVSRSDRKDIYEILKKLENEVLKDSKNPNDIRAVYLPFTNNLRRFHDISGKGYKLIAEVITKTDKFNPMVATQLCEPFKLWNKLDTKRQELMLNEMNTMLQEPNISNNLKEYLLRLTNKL
The experiment in a line: P. falciparum M1AAP inhibitors, biochemical, fluorogenic H-Leu-NHMec substrate, 1536-well (AID 1445). Also on record: species or system Plasmodium falciparum 3D7, 3D7.

A further data set addresses T3, Caspase-6 (Homo sapiens, UniProt P55212).
T3 sequence (P55212 whole entry): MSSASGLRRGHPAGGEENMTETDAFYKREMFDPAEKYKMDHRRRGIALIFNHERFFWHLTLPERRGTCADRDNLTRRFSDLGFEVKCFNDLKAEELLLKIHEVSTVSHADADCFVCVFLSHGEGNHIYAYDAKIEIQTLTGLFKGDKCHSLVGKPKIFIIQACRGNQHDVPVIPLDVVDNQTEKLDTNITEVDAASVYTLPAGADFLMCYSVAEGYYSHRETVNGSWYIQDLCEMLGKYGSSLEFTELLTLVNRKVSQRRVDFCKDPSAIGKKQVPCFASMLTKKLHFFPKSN
The experiment in a line: human caspase-6 inhibitors, dose response, biochemical, VEID-R110 fluorescence, cherry-pick (AID 720632).

Another data set concerns H9c2. The experiment in a line: cells. The data set is classed as functional, cell-based. To be noted: Rattus norvegicus, H9c2, Myocardium.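 Note: confirmatory concentration-response retest of ultra-high-throughput screening hits for modulation of myocardial damage; cell death induced by hydrogen peroxide oxidative stress; compound pretreatment for 60 min then peroxide exposure for 2 h; potency is for protecting the cells against peroxide damage rather than for killing them.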
The target of the next data set is Paired box protein Pax-8 (Homo sapiens, UniProt Q06710). In words: inhibitors of PAX8-driven TPO luciferase reporter, dose response, RMG-I cells, cherry-pick (AID 687027).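 Note: luciferase reporter driven by Pax8 target thyroperoxidase promoter measured by SteadyGlo luminescence.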 The data set is classed as functional, cell-based.
Sequence of Paired box protein Pax-8 (Q06710 whole entry, the tested form may be a part): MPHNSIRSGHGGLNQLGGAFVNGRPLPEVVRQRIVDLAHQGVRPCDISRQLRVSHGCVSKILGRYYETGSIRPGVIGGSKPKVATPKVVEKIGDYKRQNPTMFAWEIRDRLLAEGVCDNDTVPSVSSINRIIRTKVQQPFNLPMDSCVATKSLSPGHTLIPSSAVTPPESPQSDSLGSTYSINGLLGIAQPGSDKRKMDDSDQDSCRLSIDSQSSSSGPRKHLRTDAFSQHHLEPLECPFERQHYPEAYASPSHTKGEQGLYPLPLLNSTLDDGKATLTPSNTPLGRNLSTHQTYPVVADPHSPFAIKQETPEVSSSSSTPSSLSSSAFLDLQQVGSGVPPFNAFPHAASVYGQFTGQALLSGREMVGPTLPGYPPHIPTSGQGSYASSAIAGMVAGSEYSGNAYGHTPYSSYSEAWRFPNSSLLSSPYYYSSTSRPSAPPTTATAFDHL
Data set [3] in a line: ZM109 Env clade C HIV-1 fusion inhibitors, dose response, HeLa effector, CEM target cells, luciferase, cherry-pick (AID 652058). The data set is classed as functional, cell-based.
Data set [4] in a line: inhibitors of HIV Env-driven cell fusion, dose response, cherry-pick (AID 652057). The data set is classed as functional, cell-based.
Data set [5] in a line: off-target signal loss in HeLa-CEM21 co-culture – HeLa F-luc CTL cells, cherry-picked, counter-screen for HIV-1 Env fusion inhibitor project, dose response (AID 652040).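 Note: potency for signal decrease marking cytotoxic or nonspecific inhibition.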 The data set is classed as functional, cell-based.
A short description of data set [6]: inhibitors of clade B AD8 Env fusion, dose response, cell-based, cherry-pick (AID 652062).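 Note: luciferase signal from cell-cell fusion driven by HIV-1 clade B AD8 Env; potency is for inhibitors of fusion seen as a drop in luminescence.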 The data set is classed as functional.
The target in another data set is Cytochrome P450 2C19 (Homo sapiens, UniProt P33261). In words: Cytochrome panel assay with activity outcomes. Panel member name: p450-cyp2c19 Compounds with AC50 equal or less than 10 uM are considered active. The data set is classed as functional.
Sequence of Cytochrome P450 2C19 (P33261 whole entry): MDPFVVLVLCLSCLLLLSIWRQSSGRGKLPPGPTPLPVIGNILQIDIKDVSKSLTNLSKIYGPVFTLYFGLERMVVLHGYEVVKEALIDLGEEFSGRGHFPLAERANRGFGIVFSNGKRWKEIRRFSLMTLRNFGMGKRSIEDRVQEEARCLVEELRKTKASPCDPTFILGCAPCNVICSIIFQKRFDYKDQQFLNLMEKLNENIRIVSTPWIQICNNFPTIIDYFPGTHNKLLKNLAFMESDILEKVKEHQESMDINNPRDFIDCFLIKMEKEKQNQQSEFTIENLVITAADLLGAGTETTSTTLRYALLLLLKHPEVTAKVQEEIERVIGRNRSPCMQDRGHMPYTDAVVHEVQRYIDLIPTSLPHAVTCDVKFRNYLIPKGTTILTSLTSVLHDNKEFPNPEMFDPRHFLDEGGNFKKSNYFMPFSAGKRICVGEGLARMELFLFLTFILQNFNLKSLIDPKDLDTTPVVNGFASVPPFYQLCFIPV
Data set [7] addresses T4, Ubiquitin-conjugating enzyme E2 N (Homo sapiens, UniProt P61088).
T4 sequence (P61088 whole entry): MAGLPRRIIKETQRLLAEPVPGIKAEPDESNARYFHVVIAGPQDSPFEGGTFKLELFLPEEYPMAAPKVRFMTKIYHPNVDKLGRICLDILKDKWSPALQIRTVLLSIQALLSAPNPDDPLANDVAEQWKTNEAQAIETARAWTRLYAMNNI
The data set is classed as functional.

Data set [8] concerns the target T5, Corticotropin-releasing factor receptor 2/Corticotropin-releasing factor-binding protein (Homo sapiens, UniProt P24387+Q13324).
T5 sequence (Q13324 whole entry): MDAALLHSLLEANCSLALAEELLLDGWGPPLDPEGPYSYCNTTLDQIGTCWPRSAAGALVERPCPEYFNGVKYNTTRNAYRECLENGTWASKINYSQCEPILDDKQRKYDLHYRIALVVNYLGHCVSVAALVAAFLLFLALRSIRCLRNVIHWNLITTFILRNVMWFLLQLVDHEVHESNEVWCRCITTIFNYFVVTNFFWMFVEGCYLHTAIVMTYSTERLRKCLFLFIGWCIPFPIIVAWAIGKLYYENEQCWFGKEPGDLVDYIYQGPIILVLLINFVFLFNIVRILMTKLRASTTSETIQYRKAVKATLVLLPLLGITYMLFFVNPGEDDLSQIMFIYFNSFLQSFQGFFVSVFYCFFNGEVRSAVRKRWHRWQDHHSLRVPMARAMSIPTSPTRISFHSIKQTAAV
T5 sequence (P24387 whole entry): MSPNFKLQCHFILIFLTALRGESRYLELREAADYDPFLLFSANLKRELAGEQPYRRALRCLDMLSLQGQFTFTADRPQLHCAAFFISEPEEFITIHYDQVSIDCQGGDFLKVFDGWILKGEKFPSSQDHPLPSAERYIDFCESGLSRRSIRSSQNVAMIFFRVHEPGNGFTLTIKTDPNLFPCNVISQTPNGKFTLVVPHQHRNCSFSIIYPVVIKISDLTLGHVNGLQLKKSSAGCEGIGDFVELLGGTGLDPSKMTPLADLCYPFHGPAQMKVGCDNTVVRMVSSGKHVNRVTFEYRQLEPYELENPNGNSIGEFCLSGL
In words: Dose Response confirmation of uHTS hits for small molecule antagonists of the CRF-binding protein and CRF-R2 receptor complex. The data set is classed as functional. To be noted: read-out: IC50_Mean.

Data set [9] addresses T5, Corticotropin-releasing factor receptor 2/Corticotropin-releasing factor-binding protein. In words: activators of CRF receptor 2 with binding protein – uHTS hits, confirmation (AID 602473). Conditions: read-out: EC50_Mean. The data set is classed as functional.

Active and inactive are the calls of the source.

With `Cc1ccc(S(=O)(=O)Nc2ccc3c(c2)C(=O)N([C@H](C)CO)C[C@H](C)[C@@H](CN(C)C(=O)Nc2ccc(C(F)(F)F)cc2)OCCCC[C@@H](C)O3)cc1`, in data set [1], the AC50 is 4.82 µM (active).
With `Cn1/c(=N/CC(O)COc2ccccc2)sc2ccccc21` (stereo unspecified), the IC50 in [2] was 13.5 µM (active).
As to `C[C@@H]1CN([C@@H](C)CO)C(=O)c2cccc(NC(=O)Nc3ccc(F)cc3)c2O[C@@H]1CN(C)Cc1ccc(C(=O)Nc2ccccc2N)cc1`, in data set [1], the concentration at half-maximal activity (AC50) was 3.68 µM (active).
For `c1ccc(CCCCN2C(Nc3ccccc3)=NC[C@@H]2Cc2ccccc2)cc1`, in data set [2], the IC50 is 12 µM (active).
In the case of `C[C@H](CO)N1C[C@H](C)[C@H](CN(C)C(=O)Nc2ccc(F)cc2)Oc2c(NC(=O)c3ccncc3)cccc2C1=O`, the concentration at half-maximal activity (AC50) in [1] is 2.08 µM (active).
As to `Cc1ccc(S(=O)(=O)N(NC2=NS(=O)(=O)c3ccccc32)C(=O)c2ccccc2)cc1`, the IC50 at Aminopeptidase N was 46.8 µM (active).
Take `C[C@@H]1CN([C@@H](C)CO)C(=O)c2cccc(NS(=O)(=O)c3ccc(Cl)cc3)c2O[C@H]1CN(C)Cc1ccc(C(=O)Nc2ccccc2N)cc1`: the AC50 in data set [1] is 2.53 µM (active).
On the same count and under the same terms, as for `Cc1ccc(S(=O)(=O)N(C)C[C@H]2Oc3c(NC(=O)c4nc5ccccc5s4)cccc3C(=O)N([C@@H](C)CO)C[C@@H]2C)cc1`, the figure is 1.09 µM (active).
For the compound `C/C(=N\Nc1ccc(C(=O)O)cc1)c1ccc(Br)cc1`, on Caspase-6, the AC50 was 7.07 µM (active).
For `C[C@@H]1CN([C@H](C)CO)C(=O)Cc2cc(NS(=O)(=O)c3ccc(F)cc3)ccc2O[C@@H]1CN(C)Cc1ccc(-c2ccccc2)cc1`, the half-maximal activity concentration (AC50) in data set [1] is 3.2 µM (active).
For the compound `COc1ccc(C(C(=O)NC2CCCCC2)N(C(=O)c2ccco2)c2ccccc2C(C)=O)cc1OC` (stereo unspecified), in data set [2], the IC50 is 2 µM (active).
On to `CN(C)C(=O)c1ccc(-c2nnc(O)c3ccccc23)cc1`, for which the IC50 with H9c2 was > 79 µM (inactive).
On to `CCc1cc(=O)oc2c(CN3CCN(C)CC3)c(O)c(Cl)cc12`, for which, on Aminopeptidase N, the IC50 is 35.9 µM (active).
As for `CC1CCCCN1CCNC(=O)CN1C(=O)CSc2ccc(S(=O)(=O)N3CCCCC3)cc21` (stereo unspecified), the IC50 in data set [2] was 12.9 µM (active).
For `CCC(C)(C)n1nnnc1C(c1ccc2ncccc2c1)N1CCN(c2nc3ccccc3s2)CC1` (stereo unspecified), the IC50 on Aminopeptidase N was 51.1 µM (active).
With `CC(=O)c1cccc(-c2cnc3c(NC=O)cc(-c4cccc(C(=O)N(C)C)c4)cn23)c1`, the IC50 in the data set on H9c2 is > 79 µM (inactive).
Turning to `C[n+]1ccccc1COc1ccc(C(C)(C)C)cc1`, the IC50 in data set [2] is 13.8 µM (active).
As to `COc1ccc(-c2cnc3c(NC=O)cc(-c4cccc(NS(C)(=O)=O)c4)cn23)cc1OC`, the IC50 in the data set on H9c2 was > 79 µM (inactive). In addition, the AC50 on Paired box protein Pax-8 is 5.09 µM (active).
Take `CC1CCN(C(=O)c2ncn3c2C(=O)N[C@@H](C)C3)CC1`: the half-maximal activity concentration (AC50) was 9.53 µM (active) in [3], 1.94 µM (active) in data set [4], 7.15 µM (active) in [5] and 9.91 µM (active) in data set [6].
Regarding `CCOc1nc(N=C(N)N)nc2c(C)cccc12`, the AC50 result on Cytochrome P450 2C19 is “inconclusive”. The IC50 on Aminopeptidase N is 7.38 µM (active).
Regarding `OCC[C@@H]1C[C@@H](O)[C@H](O)[C@]2(OCc3ccccc32)O1`, the AC50 is 28.2 µM (active) in data set [5] and 27.2 µM (active) in data set [6].
With `O=C(Cc1ccc(S(=O)(=O)N2CCOCC2)s1)N1CCN(S(=O)(=O)c2ccc(Cl)cc2)CC1`, the AC50 in data set [3] is 7.93 µM (active); in data set [4] it was 7.03 µM (active); in [5], 14.1 µM (active); in data set [6] it was 28.2 µM (active).
Regarding `COc1ccccc1NS(=O)(=O)c1cccc(C(=O)N/N=C/c2c(CO)cnc(C)c2O)c1`, the IC50 in [7] is > 20 µM (inactive); in the data set with H9c2 it was > 79 µM (inactive).
For the compound `O=C(N/N=C/c1ccccn1)c1cccs1`, the results for the IC50 (in [8]; in the data set on H9c2) were > 47.1 µM (inactive) and > 79 µM (inactive), respectively. Besides, in data set [9], the EC50 is > 53 µM (inactive).

These data come from ChEMBL document CHEMBL1201862, “PubChem BioAssay data set” (2004).
